According to ChEMBL document CHEMBL5724696, “Autophagy assay results for EUbOPEN Chemogenomics Library” (2024):
“And” between values parts separate entries of the source, which are not always exact repeats. Equal values may be shown once.

Assays:
Type in all cases: functional, Homo sapiens
U2OS [1] = assay: (§1) Here: values are normalized to the negative (DMSO; defined as 0% autophagy induction) and positive (250nM Torin1; mTOR inhibitor; defined as maximal inducer of autophagy = 100%) control compounds and represented as % of autophagy induction. […] The impact of autophagy induction on cells is complex and depends on the affected target. As such, the magnitude of a phenotype may not be equally mirrored in the %-value of autophagy induction and vice versa. The dynamics of the induction may indicate the mode of activation: e.g. activation via phosphorylation or a signaling cascade may occur fast, while activation via transcription factors may take considerably longer. […] Of note, treatment concentrations may be sub-optimal for specific compounds, leading to false negative annotations.; settings: Culturing Media DMEM, 1 % Penicillin/Streptomycin, 10% Fetal bovin serum Add-On: No, Screening Media Control DMEM, Screening Media Samples DMEM
U2OS [2] = assay: as §1; settings: Culturing Media DMEM, 1 % Penicillin/Streptomycin, 10% Fetal bovin serum Add-On: No, Screening Media Control DMEM, Screening Media Samples DMEM; remark: listed apart in the source
TERT-RPE1 = assay: as §1; settings: Culturing Media DMEM/F12 (1:1), 1 % Penicillin/Streptomycin, 10% Fetal bovin serum Add-On: No, Screening Media Control DMEM/F12 (1:1), Screening Media Samples DMEM/F12 (1:1)
[3] = Compound Concentration 0.5 uM, Timepoint 12 hours
[4] = Compound Concentration 0.5 uM, Timepoint 24 hours
[5] = Compound Concentration 0.5 uM, Timepoint 36 hours
[6] = Compound Concentration 0.5 uM, Timepoint 60 hours
[7] = Compound Concentration 2 uM, Timepoint 12 hours
[8] = Compound Concentration 2 uM, Timepoint 24 hours
[9] = Compound Concentration 2 uM, Timepoint 36 hours
[10] = Compound Concentration 2 uM, Timepoint 60 hours
[11] = Compound Concentration 10 uM, Timepoint 12 hours
[12] = Compound Concentration 10 uM, Timepoint 24 hours
[13] = Compound Concentration 10 uM, Timepoint 36 hours
[14] = Compound Concentration 10 uM, Timepoint 60 hours

Cc1c(F)cccc1NC(=O)Nc1ccc(Cl)c(S(=O)(=O)[C@H]2CCCNC2)c1O [DANIRIXIN]
autophagy induction (U2OS [1]; [3]): -10.8402% | autophagy induction (U2OS [1]; [4]): -17.1359% | autophagy induction (U2OS [1]; [5]): -12.7926% | autophagy induction (U2OS [1]; [6]): -5.9905% | autophagy induction (U2OS [1]; [7]): -6.206% | autophagy induction (U2OS [1]; [8]): -10.5833% | autophagy induction (U2OS [1]; [9]): -10.8283% | autophagy induction (U2OS [1]; [10]): -13.8786% | autophagy induction (U2OS [1]; [11]): -11.164% | autophagy induction (U2OS [1]; [12]): -5.925% | autophagy induction (U2OS [1]; [13]): -8.152% | autophagy induction (U2OS [1]; [14]): -8.851% | autophagy induction (U2OS [2]; [3]): 3.972% | autophagy induction (U2OS [2]; [4]): -2.873% | autophagy induction (U2OS [2]; [5]): -59.8201% | autophagy induction (U2OS [2]; [6]): -1.181% | autophagy induction (U2OS [2]; [7]): -1.664% | autophagy induction (U2OS [2]; [8]): -3.195% | autophagy induction (U2OS [2]; [9]): -60.7356% | autophagy induction (U2OS [2]; [10]): -1.731% | autophagy induction (U2OS [2]; [11]): -5.705% | autophagy induction (U2OS [2]; [12]): -2.005% | autophagy induction (U2OS [2]; [13]): -60.1624% | autophagy induction (U2OS [2]; [14]): -1.218% | autophagy induction (TERT-RPE1; Compound Concentration 0.5 uM, Timepoint 12 hours, 12 h, 0.5 µM): -1.988% and 1.2715% | autophagy induction (TERT-RPE1; Compound Concentration 0.5 uM, Timepoint 24 hours, 24 h, 0.5 µM): -2.9066% and -1.048% | autophagy induction (TERT-RPE1; Compound Concentration 0.5 uM, Timepoint 36 hours, 36 h, 0.5 µM): -6.399% and -2.355% | autophagy induction (TERT-RPE1; Compound Concentration 0.5 uM, Timepoint 60 hours, 60 h, 0.5 µM): -5.802% and -6.526% | autophagy induction (TERT-RPE1; Compound Concentration 2 uM, Timepoint 12 hours, 12 h, 2 µM): -2.5% and 0.287% | autophagy induction (TERT-RPE1; Compound Concentration 2 uM, Timepoint 24 hours, 24 h, 2 µM): -3.213% and -0.8718% | autophagy induction (TERT-RPE1; Compound Concentration 2 uM, Timepoint 36 hours, 36 h, 2 µM): -5.9285% and 0.3135% | autophagy induction (TERT-RPE1; Compound Concentration 2 uM, Timepoint 60 hours, 60 h, 2 µM): -6.839% and -1.623% | autophagy induction (TERT-RPE1; Compound Concentration 10 uM, Timepoint 12 hours, 12 h, 10 µM): 1.595% and 0.8887% | autophagy induction (TERT-RPE1; Compound Concentration 10 uM, Timepoint 24 hours, 24 h, 10 µM): 3.736% and 2.2115% | autophagy induction (TERT-RPE1; Compound Concentration 10 uM, Timepoint 36 hours, 36 h, 10 µM): 4.117% and 5.758% | autophagy induction (TERT-RPE1; Compound Concentration 10 uM, Timepoint 60 hours, 60 h, 10 µM): 6.176% and 5.1403%
